Article PMC10891983, “First Description of Marinoquinoline Derivatives’ Activity against Toxoplasma gondii” (Pharmaceutics, 2024)
“Also recorded” adds a separate entry of the source.

Experiments:
T. gondii tachyzoites = test: microbe, parasite or virus in culture; type: cell-based, Toxoplasma gondii; conditions: for EC50: Toxoplasma gondii, T. gondii RH-2F1 tachyzoites in HFF, 72 h, ± SD of three independent experiments, read-out: EC50 (Half Effective Concentration); for SI (Selectivity index): CC50 (HFF)/EC50 (T. gondii)
[1] = Assay for evaluating mammalian cytotoxicity (MTT); type: cell-based; conditions: human, human foreskin fibroblast (HFF) cells, ± SD of three independent experiments, read-out: CC50 (Half Cytotoxic Concentration)
[2] = tested on: RH strain T. gondii tachyzoites; type: in vivo
Protocol: To evaluate the effectiveness of MQ-1 in treating acute T. gondii infection in vivo, a murine model was employed, utilizing Swiss mice in accordance with established protocols. […] Treatment involved the administration of compounds dissolved in a 4% DMSO solution in water, and was conducted one day post-infection. […] . As for the control group, they were administered 100 µL of the vehicle utilized for MQ-1 dilution, consisting of a 4% DMSO solution in water. Continuous monitoring of the mice included daily assessments for signs of toxoplasmosis. These signs encompassed impaired mobility, feeding difficulties, weight loss, self-mutilation, and severe ascites. […] The implementation of humane endpoints aimed to mitigate any potential pain or suffering in the animals, leading to their euthanasia when necessary. At the end of the experimental period, euthanasia was performed on all remaining mice, and the peritoneal parasite load was estimated using a Neubauer chamber.

ME49 strain T. gondii = test: Chronic toxoplasmosis model, ME49-infected C57BL/6 mice
Description: Male Swiss mice (Mus musculus) (8 weeks old) for the acute toxoplasmosis experiments and female C57BL/6 mice (4 weeks old) for the chronic toxoplasmosis experiments were sourced from the animal breeding facility at the Universidade Federal de Alfenas, Brazil. Strict adherence to the principles of good animal practice, as outlined in the Brazilian Guidelines for Care and Utilization of Animals by the Conselho Nacional de Controle e Experimentação Animal (CONCEA), was observed during the handling of all animals. The study protocol received approval from the Ethics Committee for Animal Experimentation at the Universidade Federal de Alfenas under Protocols 033/2021 and 0006/2023. All necessary precautions were taken to minimize any potential suffering experienced by the animals.
The mice were infected with 10 cysts of the ME49 strain of T. gondii via intraperitoneal inoculation, following the protocol by [16]. After a 40-day infection period, random assignment was used to divide the mice into distinct experimental groups, each consisting of four mice. These experimental groups were subjected to different treatments: MQ-1, administered either at a dosage of 25 mg/kg/day or 12.5 mg/kg/day, prepared with a 4% DMSO solution in water. […] The administration was carried out via oral gavage, with a final volume of 100 µL per dose. For the control group, 100 µL of the vehicle used to dilute MQ-1 (4% DMSO in water) was administered. […] On the 51st day post-infection, euthanasia was performed for all animals, followed by brain tissue collection for RNA extraction and quantification, as detailed in [18]. DNA extraction and purification were carried out using the PureLink Genomic DNA Minikit (Invitrogen. Carlsbad, CA, USA) following the manufacturer’s instructions. […] After extraction, RNA samples were immediately processed for cDNA synthesis and underwent quantitative real-time (qPCR) analysis. […]
Data on parasite burden in acute and chronic infection in treated and untreated groups were analyzed for statistical significance using One-Way ANOVA, followed by the Tukey post-test. […]

[3] = vs pyrimethamine 12.5 mg/kg/day

## COc1ccc2c(c1)nc(-c1c[nH]c3ccccc13)c1[nH]ccc12 [MQ-1]
T. gondii tachyzoites
  EC50: 1.46 ± 0.45 µM
[1]
  CC50 at 72 h: 30.5 ± 1.8 µM
[2]; Swiss mice, 12.5 mg/kg/day oral for 8 days
  signs of toxicity throughout the treatment: No signs of toxicity were observed
[2]; [3]
  difference between the tested compound and the standard drug, acute evaluation: no statistically significant differences
ME49 strain T. gondii; C57BL/6 mice, ME49 strain, 25 mg/kg/day oral for 10 consecutive days from day 41 post-infection, qPCR, p < 0.01, 25 mg/kg/day
  cerebral parasitic load vs vehicle: significantly reduced; also recorded: significant (p < 0.01) reduction
ME49 strain T. gondii; [3]
  difference between the tested compound and the standard drug, chronic evaluation: no statistically significant differences

## COc1ccc2c(c1)nc(-c1ccc(N3CCNCC3)cc1)c1[nH]ccc12 [MQ-2]
T. gondii tachyzoites
  SI (Selectivity index): 17.39
  EC50: 1.67 ± 0.4 µM
[1]
  CC50 at 72 h: 29.1 ± 0.84 µM

## CC(C)(C)OC(=O)Nc1ccc(-c2nc3ccc(Cl)cc3c3cc[nH]c23)cc1 [MQ-3]
T. gondii tachyzoites
  SI (Selectivity index): 3.35
  EC50: 1.6 ± 0.54 µM
[1]
  CC50 at 72 h: 5.36 ± 0.91 µM

## CC(C)(C)OC(=O)Nc1ccc(-c2nc3ccc(OC(F)(F)F)cc3c3cc[nH]c23)cc1 [MQ-4]
T. gondii tachyzoites
  SI (Selectivity index): 3.18
  EC50: 1.31 ± 0.31 µM
[1]
  CC50 at 72 h: 4.16 ± 1.05 µM

## COc1ccc2c(c1)nc(-c1ccc(N3CCC(F)CC3)cc1)c1[nH]ccc12 [MQ-5]
T. gondii tachyzoites
  SI (Selectivity index): 3.52
  EC50: 1.43 ± 0.37 µM
[1]
  CC50 at 72 h: 5.05 ± 1.63 µM

## COc1ccc2c(c1)nc(-c1ccc(Br)cn1)c1[nH]ccc12 [MQ-6]
T. gondii tachyzoites
  SI (Selectivity index): 7.55
  EC50: 3.78 ± 0.67 µM
[1]
  CC50 at 72 h: 28.6 ± 7.33 µM

## CCc1nc(N)nc(N)c1-c1ccc(Cl)cc1 [PYR, pyrimethamine, reference compound]
T. gondii tachyzoites
  EC50: 0.29 ± 0.19 µM
[1]
  CC50 at 72 h: 68.1 ± 4.26 µM
